Reference: PMC11472320, “Computationally Driven Discovery of a BCR-ABL1 Kinase Inhibitor with Activity in Multidrug-Resistant Chronic Myeloid Leukemia” (Journal of Medicinal Chemistry, 2024)
Like-named read-outs stand apart in the source and are kept apart here. Each block holds one molecule with its values, some of them ahead of it.

How the values were obtained:
K562 cells = test: Cell viability assay (CellTiter-Glo); assay type: cell-based, human
MDR1 (P-gp) = test: in vitro; settings: dog, MDCK-MDR1
MDR1 = test: in vitro; settings: dog, MDCK-MDR1
in vitro [1] = settings: dog, MDCK-MDR1
[2] = Metabolic stability in hepatocytes; assay type: in vitro ADME, human; settings: for hepatocyte CLint: both sexes, read-out: HEPClint (H); for hepatocyte CLint / t1/2 (H): human hepatocytes
Source text: (§1) Metabolic stability in hepatocytes
(§2) Table S4. Hepatocyte details used in the hepatocyte stability assay.
(§3) Human Hepatocytes, Mixed-Gender BiolVT (Cat No. X008001)
(§4) Mouse Hepatocytes, Male-Gender BiolVT (Cat No. M005052)

Lipophilicity logD7.4 = assay type: physicochemical; settings: pH 7.4
MDCKII-MDR1 cells = test: MDCKII-MDR1 permeability; settings: Table S7
Caco-2 cells = test: Caco-2 permeability
in vitro [3] = settings: human, Caco-2
Aqueous solubility = assay type: physicochemical; settings: pH 7.4
cSRC wt = cSRC wt (Homo sapiens, UniProt P12931); test: KinaseProfiler enzymatic radiometric kinase assay
BCR-ABL1 wt = BCR-ABL1 wt (Homo sapiens, UniProt P00519); test: KinaseProfiler enzymatic radiometric kinase assay; settings: read-out: Kinase IC50 BCR-ABL1 wt; [ATP] = 10 µM, n = 2
[4] = target: T1, hERG potassium ion channel (Homo sapiens, UniProt Q12809); test: hERG safety evaluation by manual patch-clamp (HEK 293); assay type: cell-based; settings: mean ± SEM in Table S11
T1 construct: host or cells: HEK 293

[5] = Metabolic stability in hepatocytes; assay type: in vitro ADME, mouse
Source text: as §1, §2, §3, §4

[6] = Plasma protein binding by equilibrium dialysis; assay type: in vitro ADME; settings: mouse plasma
[7] = Plasma protein binding by equilibrium dialysis; assay type: in vitro ADME; settings: human plasma
[8] = cited from earlier work

Sequence of cSRC wt (P12931 whole entry): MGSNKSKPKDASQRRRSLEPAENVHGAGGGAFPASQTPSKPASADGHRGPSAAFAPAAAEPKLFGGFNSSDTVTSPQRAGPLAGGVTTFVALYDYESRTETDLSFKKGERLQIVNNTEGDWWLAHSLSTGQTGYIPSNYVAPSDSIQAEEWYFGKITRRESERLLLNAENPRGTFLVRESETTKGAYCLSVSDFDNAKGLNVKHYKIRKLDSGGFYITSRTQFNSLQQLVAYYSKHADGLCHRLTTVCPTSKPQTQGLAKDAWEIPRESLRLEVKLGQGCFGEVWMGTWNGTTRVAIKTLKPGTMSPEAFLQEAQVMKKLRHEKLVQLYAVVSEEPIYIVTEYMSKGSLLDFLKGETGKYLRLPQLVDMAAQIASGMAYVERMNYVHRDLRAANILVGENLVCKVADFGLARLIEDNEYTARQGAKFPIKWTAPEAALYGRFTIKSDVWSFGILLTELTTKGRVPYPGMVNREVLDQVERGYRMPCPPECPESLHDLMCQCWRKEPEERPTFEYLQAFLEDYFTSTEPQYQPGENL
Sequence of BCR-ABL1 wt (P00519 27-1130 limits assumed): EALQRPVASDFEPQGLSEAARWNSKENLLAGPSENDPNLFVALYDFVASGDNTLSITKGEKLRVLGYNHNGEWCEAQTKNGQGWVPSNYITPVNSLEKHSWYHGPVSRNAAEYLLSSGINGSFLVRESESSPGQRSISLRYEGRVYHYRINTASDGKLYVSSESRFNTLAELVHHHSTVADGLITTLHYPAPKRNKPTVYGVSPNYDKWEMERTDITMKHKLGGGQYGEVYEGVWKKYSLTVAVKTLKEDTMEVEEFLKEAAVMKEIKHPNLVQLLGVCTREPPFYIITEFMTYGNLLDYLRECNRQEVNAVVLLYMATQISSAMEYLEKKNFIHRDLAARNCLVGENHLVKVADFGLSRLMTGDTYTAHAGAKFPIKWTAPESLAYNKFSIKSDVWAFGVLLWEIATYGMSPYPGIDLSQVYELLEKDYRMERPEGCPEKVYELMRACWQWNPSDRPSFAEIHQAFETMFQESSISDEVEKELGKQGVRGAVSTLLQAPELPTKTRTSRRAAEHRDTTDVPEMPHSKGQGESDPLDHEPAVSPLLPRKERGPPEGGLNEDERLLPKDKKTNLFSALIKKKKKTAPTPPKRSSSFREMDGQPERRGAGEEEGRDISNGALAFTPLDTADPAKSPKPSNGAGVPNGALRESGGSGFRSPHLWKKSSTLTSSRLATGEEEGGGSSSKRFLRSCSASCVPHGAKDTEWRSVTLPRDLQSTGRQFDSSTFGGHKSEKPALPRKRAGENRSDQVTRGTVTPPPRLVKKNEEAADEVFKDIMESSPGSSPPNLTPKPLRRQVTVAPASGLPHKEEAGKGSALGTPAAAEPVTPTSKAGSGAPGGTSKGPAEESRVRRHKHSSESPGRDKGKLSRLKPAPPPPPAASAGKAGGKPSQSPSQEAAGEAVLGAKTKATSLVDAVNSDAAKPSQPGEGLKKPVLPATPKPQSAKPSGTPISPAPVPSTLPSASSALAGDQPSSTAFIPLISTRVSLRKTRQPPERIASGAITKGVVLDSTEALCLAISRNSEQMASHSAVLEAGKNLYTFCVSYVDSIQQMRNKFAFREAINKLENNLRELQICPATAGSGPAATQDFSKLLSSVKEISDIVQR
T1 sequence (Q12809 whole entry): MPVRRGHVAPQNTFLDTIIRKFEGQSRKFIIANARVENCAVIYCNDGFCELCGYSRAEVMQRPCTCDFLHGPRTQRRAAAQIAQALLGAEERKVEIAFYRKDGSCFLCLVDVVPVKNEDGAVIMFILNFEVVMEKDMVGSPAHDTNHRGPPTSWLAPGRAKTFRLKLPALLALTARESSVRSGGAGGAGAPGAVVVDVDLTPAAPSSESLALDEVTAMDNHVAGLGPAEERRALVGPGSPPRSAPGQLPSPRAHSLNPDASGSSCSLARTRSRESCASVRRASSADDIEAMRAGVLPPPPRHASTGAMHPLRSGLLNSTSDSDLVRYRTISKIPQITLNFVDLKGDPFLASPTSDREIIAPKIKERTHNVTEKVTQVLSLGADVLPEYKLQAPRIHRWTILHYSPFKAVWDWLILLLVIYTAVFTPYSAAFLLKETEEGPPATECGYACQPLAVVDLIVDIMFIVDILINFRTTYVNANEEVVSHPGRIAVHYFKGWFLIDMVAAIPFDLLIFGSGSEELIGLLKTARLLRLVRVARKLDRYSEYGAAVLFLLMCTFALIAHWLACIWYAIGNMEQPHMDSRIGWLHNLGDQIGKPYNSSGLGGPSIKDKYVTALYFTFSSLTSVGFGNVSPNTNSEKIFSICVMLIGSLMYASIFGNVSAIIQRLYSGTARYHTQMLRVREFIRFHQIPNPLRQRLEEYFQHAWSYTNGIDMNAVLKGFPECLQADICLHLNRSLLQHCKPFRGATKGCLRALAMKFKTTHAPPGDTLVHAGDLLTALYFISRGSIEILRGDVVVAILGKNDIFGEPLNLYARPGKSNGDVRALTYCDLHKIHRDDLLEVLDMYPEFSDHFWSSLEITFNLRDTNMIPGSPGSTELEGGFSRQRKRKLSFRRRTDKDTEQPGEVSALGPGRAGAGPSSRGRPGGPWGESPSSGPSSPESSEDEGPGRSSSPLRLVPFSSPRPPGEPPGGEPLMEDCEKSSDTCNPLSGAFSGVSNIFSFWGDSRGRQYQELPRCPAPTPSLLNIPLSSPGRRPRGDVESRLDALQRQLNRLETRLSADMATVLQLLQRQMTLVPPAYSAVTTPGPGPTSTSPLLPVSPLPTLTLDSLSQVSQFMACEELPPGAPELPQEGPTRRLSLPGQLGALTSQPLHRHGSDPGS

IC50 (K562 cells; Homo sapiens, K562, 72 h, read-out: K562 Cell Line IC50 (95% CI), 72 h, n = 3, unadjusted for FBS): 0.218 µM
IC50 (K562 cells; read-out: K562 Cell Line IC50 (95% CI), 72 h, n = 3, unadjusted for FBS): 0.186 µM
Papp A→B (MDR1 (P-gp)): 41 nm/s
Papp B→A (MDR1 (P-gp)): 247 nm/s
Papp A→B (MDR1): 40.8 nm/s
Papp B→A (MDR1): 247 nm/s
efflux ratio (MDR1): 6
recovery (in vitro [1]): 75.4%
Remaining Percentages ([2]; 0.5 min): 100.00%
Remaining Percentages ([2]; 15 min): 83.13%
Remaining Percentages ([2]; 30 min): 68.12%
Remaining Percentages ([2]; 60 min): 50.16%
Remaining Percentages ([2]; 90 min): 37.41%
Remaining Percentages ([2]; 120 min): 25.52%
hepatocyte CLint [2]: 22.3 µL/min/1e6 cells
t1/2 (H) [2]: 62.3 min
logD (Lipophilicity logD7.4): 3.1
Recovery% (BL-AP) (MDCKII-MDR1 cells): 77.51%
efflux ratio (MDCKII-MDR1 cells): 6.05
Recovery% (AP-BL) (Caco-2 cells; Table S9): 65.43%
Recovery% (BL-AP) (Caco-2 cells; Table S9): 92.37%
efflux ratio (Caco-2 cells; Table S9): 18.96
Caco-2 Papp (a-b) (Caco-2 cells): 20 nm/s
Caco-2 Papp (b-a) (Caco-2 cells): 374 nm/s
Papp A→B (in vitro [3]): 19.9 nm/s
Papp B→A (in vitro [3]): 374 nm/s
efflux ratio (in vitro [3]): 18.7
Aq. Sol. (Aqueous solubility): 7 µM
IC50 (cSRC wt): 0.002 µM
IC50 (BCR-ABL1 wt): < 0.001 µM
SMILES: COc1cc(Nc2c(C#N)cnc3cc(OCCON4CCN(C)CC4)c(OC)cc23)ccc1Cl [14a]

Papp A→B (MDR1 (P-gp)): 59 nm/s
Papp B→A (MDR1 (P-gp)): 248 nm/s
Papp B→A (MDR1): 248 nm/s
efflux ratio (MDR1): 4.2
recovery (in vitro [1]): 84.5%
Remaining Percentages ([5]; 0.5 min): 100.00%
Remaining Percentages ([5]; 15 min): 55.53%
Remaining Percentages ([5]; 30 min): 28.57%
Remaining Percentages ([5]; 60 min): 13.26%
Remaining Percentages ([5]; 90 min): 6.75%
Remaining Percentages ([5]; 120 min): 2.89%
recovery ([6]; both sexes, CD-1): 95.9%
remaining at 6 h ([6]; both sexes, CD-1, 6 h): 106%
fraction unbound ([6]; both sexes, CD-1, read-out: %Bound (converted)): 0.0971
%Unbound [6]: 9.71%
Remaining Percentages ([2]; 0.5 min): 100.00%
Remaining Percentages ([2]; 15 min): 78.44%
Remaining Percentages ([2]; 30 min): 63.53%
Remaining Percentages ([2]; 60 min): 43.29%
Remaining Percentages ([2]; 90 min): 27.95%
Remaining Percentages ([2]; 120 min): 20.14%
hepatocyte CLint [2]: 26.8 µL/min/1e6 cells
t1/2 (H) [2]: 51.7 min
logD (Lipophilicity logD7.4): 3.1
fraction unbound ([7]; both sexes): 0.0773
recovery ([7]; both sexes): 95.8%
remaining at 6 h ([7]; both sexes, 6 h): 99.4%
%Unbound [7]: 7.73%
Recovery% (BL-AP) (MDCKII-MDR1 cells): 72.29%
Recovery% (BL-AP) (Caco-2 cells; Table S9): 78.22%
efflux ratio (Caco-2 cells; Table S9): 6.24
Caco-2 Papp (a-b) (Caco-2 cells): 7 nm/s
Caco-2 Papp (b-a) (Caco-2 cells): 44 nm/s
Papp A→B (in vitro [3]): 7.1 nm/s
Papp B→A (in vitro [3]): 44.4 nm/s
efflux ratio (in vitro [3]): 6.3
recovery (in vitro [3]): 72.2%
Aq. Sol. (Aqueous solubility): 0.8 µM
IC50 (cSRC wt): 0.011 µM
IC50 (BCR-ABL1 wt): 0.006 µM
SMILES: COc1cc(Cl)ccc1Nc1c(C#N)cnc2cc(OCCON3CCN(C)CC3)c(OC)cc12 [15a, 4-((4-Chloro-2-methoxyphenyl)amino)-6-methoxy-7-(2-((4-methylpiperazin-1-yl)oxy)ethoxy)quinoline-3-carbonitrile]
IC50 [4]: 4.36 µM

SMILES: Fc1c2c(cc3ncnc(Nc4ccccc4)c13)OCCO2 [compound 9]
Abraham ANMR Value [8]: 0.10

SMILES: COc1c2c(cc3ncnc(Nc4ccccc4)c13)OCCO2 [compound 10]
Abraham ANMR Value [8]: 0.02
